Laboratory results: US8658350B2 (priority 2008, dated 2014)

tested on: CD8+ T cells; format: cell-based, human

Compound | # SFU | #SFU/250,000 CD8+ T-cells
CC(C)C[C@H](NC(=O)[C@H](Cc1ccc(O)cc1)NC(=O)[C@H](CO)NC(=O)[C@H](CCC(N)=O)NC(=O)[C@H](C)NC(=O)[C@@H](NC(=O)[C@@H]1CCCN1C(=O)[C@H](CO)NC(=O)[C@H](C)N)C(C)C)C(=O)O | 210 | –
CC[C@H](C)[C@H](NC(=O)[C@H](Cc1c[nH]cn1)NC(=O)[C@H](C)NC(=O)[C@H](CC(=O)O)NC(=O)[C@H](CC(C)C)NC(=O)[C@@H](N)CC(C)C)C(=O)N1CCC[C@H]1C(=O)N[C@@H](CCC(N)=O)C(=O)N[C@@H](CC(C)C)C(=O)O | <10 | –
CC(C)[C@H](NC(=O)[C@H](C)NC(=O)[C@H](C)NC(=O)[C@H](CCC(N)=O)NC(=O)[C@H](C)NC(=O)[C@H](C)NC(=O)[C@@H](N)[C@@H](C)O)C(=O)N[C@H](C(=O)N[C@@H](CCCNC(=N)N)C(=O)N[C@@H](Cc1ccccc1)C(=O)O)C(C)C | 258 | –
CSCC[C@H](NC(=O)[C@H](CCC(=O)O)NC(=O)[C@H](C)N)C(=O)N[C@@H](CCCCN)C(=O)N[C@H](C(=O)N[C@@H](CC(=O)O)C(=O)N[C@@H](C)C(=O)N[C@@H](C)C(=O)N[C@H](C(=O)N[C@@H](CC(C)C)C(=O)N[C@@H](C)C(=O)O)[C@@H](C)O)[C@@H](C)O | 1993 | –
CC(C)[C@H](NC(=O)[C@H](Cc1ccccc1)NC(=O)[C@H](CCCNC(=N)N)NC(=O)[C@H](C)NC(=O)[C@H](Cc1c[nH]cn1)NC(=O)[C@H](C)NC(=O)[C@H](C)N)C(=O)N[C@@H](C)C(=O)N[C@@H](C)C(=O)O | 88 | –
QTVEDEARRMW | – | 84
RADEEQQQAL | 120 | –
ELPQWLSANR | <10 | –
CC[C@H](C)[C@H](NC(=O)[C@@H](NC(=O)[C@H](C)N)C(C)C)C(=O)N[C@@H](CC(N)=O)C(=O)N[C@H](C(=O)N[C@H](C(=O)N[C@@H](CS)C(=O)N[C@@H](CC(N)=O)C(=O)N[C@@H](Cc1ccc(O)cc1)C(=O)NCC(=O)N[C@@H](CCC(N)=O)C(=O)O)[C@@H](C)O)[C@@H](C)O | 24 | –
CSCC[C@H](NC(=O)[C@@H](N)CCC(=O)O)C(=O)N[C@@H](CCCCN)C(=O)N[C@H](C(=O)N[C@@H](CC(=O)O)C(=O)N[C@@H](C)C(=O)N[C@@H](C)C(=O)N[C@H](C(=O)N[C@@H](CC(C)C)C(=O)O)[C@@H](C)O)[C@@H](C)O | 387 | –
CSCC[C@H](NC(=O)[C@H](CCC(=O)O)NC(=O)[C@H](C)N)C(=O)N[C@@H](CCCCN)C(=O)N[C@H](C(=O)N[C@@H](CC(=O)O)C(=O)N[C@@H](C)C(=O)N[C@@H](C)C(=O)O)[C@@H](C)O | 2458 | –
CC[C@H](C)[C@H](NC(=O)[C@@H](N)CC(N)=O)C(=O)N[C@@H](CCCNC(=N)N)C(=O)N[C@@H](CCC(N)=O)C(=O)N[C@@H](C)C(=O)NCC(=O)N[C@H](C(=O)N[C@@H](CCC(N)=O)C(=O)N[C@@H](Cc1ccc(O)cc1)C(=O)O)C(C)C | 1715 | –
